Data on 2 molecules can be found in article PMC4393779 (Journal of neurochemistry, 2015).

Where two headings read alike, the source gives them in different places.

For one test, the system named is DAT. The following applies: intact cells; ref Chen et al., 2004b; cited from earlier work.
Test [1] concerns the target T1, D436N hDAT (Homo sapiens, UniProt Q01959, D436N). The experiment in a line: [3H]CFT saturation binding, HEK-293 cells transiently transfected with D436N DAT. The following applies: transiently singly transfected.
Test [2] deals with T2, WT hDAT (Homo sapiens, UniProt Q01959). Particulars: transiently singly transfected, observed, mean ± SE.
Test [3] concerns WT + D345N hDAT (co-expressed). Type of test: binding, human. Particulars: transiently co-transfected 1:1, WT + D345N, observed.
The target of a further test is D313N hDAT (Homo sapiens, UniProt Q01959, D313N). The experiment in a line: [3H]CFT saturation binding, HEK-293 cells transiently transfected with D313N DAT. The following applies: transiently singly transfected.
In test [4] the target is T1, D436N hDAT. The experiment in a line: [3H]CFT saturation binding, intact HEK-293 cells stably expressing D436N DAT. Particulars: observed, mean ± SE.
For test [5], the target named is T3, W84L hDAT (Homo sapiens, UniProt Q01959, W84L).
T3 sequence (Q01959 1-620 W84L): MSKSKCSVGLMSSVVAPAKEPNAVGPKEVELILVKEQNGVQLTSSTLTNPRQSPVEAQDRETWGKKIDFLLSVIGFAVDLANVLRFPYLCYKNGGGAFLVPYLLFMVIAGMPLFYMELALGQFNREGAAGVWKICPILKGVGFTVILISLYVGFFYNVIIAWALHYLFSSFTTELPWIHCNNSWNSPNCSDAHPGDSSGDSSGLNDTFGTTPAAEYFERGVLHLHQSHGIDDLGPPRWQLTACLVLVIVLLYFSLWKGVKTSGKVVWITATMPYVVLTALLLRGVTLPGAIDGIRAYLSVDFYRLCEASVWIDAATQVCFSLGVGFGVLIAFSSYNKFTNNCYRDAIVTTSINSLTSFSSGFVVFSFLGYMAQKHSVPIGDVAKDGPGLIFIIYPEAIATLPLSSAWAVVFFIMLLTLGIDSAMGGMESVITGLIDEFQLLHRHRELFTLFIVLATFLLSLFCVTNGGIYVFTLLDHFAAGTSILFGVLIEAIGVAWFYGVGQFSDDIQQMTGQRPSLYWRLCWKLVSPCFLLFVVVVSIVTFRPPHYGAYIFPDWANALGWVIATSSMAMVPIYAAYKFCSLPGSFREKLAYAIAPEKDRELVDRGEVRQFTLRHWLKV
The experiment in a line: [3H]CFT saturation binding, HEK-293 cells transiently transfected with W84L DAT. The following applies: transiently singly transfected.

In test [6] the target is T3, W84L hDAT. Particulars: stably expressing cells, observed, mean ± SE.
The subject of test [7] is WT + D436N hDAT (mixed cells). Type of test: binding, human. Particulars: observed upon mixing stable cells in equal volumes.
Test [8] has as its system W84L + D345N hDAT (co-expressed). Type of test: binding, human. Particulars: transiently co-transfected 1:1, W84L + D345N, observed.
Test [9] has as its target T4, D345N hDAT (Homo sapiens, UniProt Q01959, D345N). The experiment in a line: [3H]CFT saturation binding, intact HEK-293 cells stably expressing D345N DAT. Particulars: observed, mean ± SE.
The test system of test [10] is WT + D436N hDAT (co-expressed). Type of test: binding, human. The following applies: transiently co-transfected 1:1, WT + D436N, observed.
Test [11] deals with WT + D313N hDAT (co-expressed). Type of test: binding, human. The following applies: transiently co-transfected 1:1, WT + D313N, observed.
Test [12] deals with WT + W84L hDAT (mixed cells). The test can be described thus: [3H]CFT saturation binding, mixed cells singly stably expressing WT and W84L DAT. Also on record: species or system human. Particulars: observed upon mixing stable cells in equal volumes.
For test [13], the target named is T4, D345N hDAT. The test can be described thus: [3H]CFT saturation binding, HEK-293 cells transiently transfected with D345N DAT. Particulars: transiently singly transfected.
In test [14] the test system is WT + W84L hDAT (co-expressed). Type of test: binding, human. The following applies: transiently co-transfected 1:1, WT + W84L, observed.
Test [15] deals with T2, WT hDAT. The test can be described thus: [3H]CFT saturation binding, intact HEK-293 cells stably expressing WT DAT. The following applies: observed, mean ± SE.
The subject of test [16] is W84L + D345N hDAT (mixed cells). Type of test: binding, human. The following applies: observed upon mixing stable cells in equal volumes.

T4 sequence (Q01959 whole entry D345N): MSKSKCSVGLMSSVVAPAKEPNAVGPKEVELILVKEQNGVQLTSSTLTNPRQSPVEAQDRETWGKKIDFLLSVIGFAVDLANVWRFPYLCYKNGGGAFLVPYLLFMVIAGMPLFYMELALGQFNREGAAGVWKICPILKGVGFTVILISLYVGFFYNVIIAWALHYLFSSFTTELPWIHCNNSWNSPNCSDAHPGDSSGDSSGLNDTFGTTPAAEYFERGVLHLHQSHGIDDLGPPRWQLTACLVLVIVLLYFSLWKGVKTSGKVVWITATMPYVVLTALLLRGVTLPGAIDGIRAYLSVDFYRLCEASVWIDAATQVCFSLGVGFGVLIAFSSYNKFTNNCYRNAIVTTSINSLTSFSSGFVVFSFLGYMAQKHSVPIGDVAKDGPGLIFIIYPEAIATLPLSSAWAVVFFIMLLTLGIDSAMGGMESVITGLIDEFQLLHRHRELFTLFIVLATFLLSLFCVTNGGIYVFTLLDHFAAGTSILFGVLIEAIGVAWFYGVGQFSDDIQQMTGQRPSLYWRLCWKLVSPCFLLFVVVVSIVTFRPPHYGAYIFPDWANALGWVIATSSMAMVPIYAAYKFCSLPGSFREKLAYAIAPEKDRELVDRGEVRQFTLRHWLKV
T1 sequence (Q01959 whole entry D436N): as the sequence (Q01959 whole entry D345N) above, with N345D, D436N counted along it
T2 sequence (Q01959 whole entry): as the sequence (Q01959 whole entry D345N) above, with N345D counted along it
D313N hDAT, sequence (Q01959 whole entry D313N): as the sequence (Q01959 whole entry D345N) above, with D313N, N345D counted along it

Consider `C[n+]1ccc(-c2ccccc2)cc1` [MPP^+], for which, in the test on DAT, the “inhibition of intact cell [3H]CFT binding” value is reported as “completely inhibited”.
As for `COC(=O)[C@H]1[C@@H](c2ccc(F)cc2)C[C@@H]2CC[C@H]1N2C` [[^3H]CFT, (−)-2-β-carbomethoxy-3-β-(4-fluorophenyl)tropane], the Bmax was 0.94 ± 0.04 (3) pmol/mg at D436N hDAT [1]; 0.79 ± 0.21 (4) pmol/mg on WT hDAT [2]; 0.41± 0.03 (4) pmol/mg at D313N hDAT; 0.50± 0.08 (4) pmol/mg on D436N hDAT [4]; 0.94 ± 0.13 (7) pmol/mg on W84L hDAT [5] (set paired with D345N (n=7)); 0.82 ± 0.14 (5) pmol/mg at W84L hDAT [5] (set paired with WT (n=5)). For the same molecule, the Bmax at W84L hDAT [6] is reported as 0.75 ± 0.16 (8) pmol/mg; at D345N hDAT [9], 0.57 ± 0.13 (4) pmol/mg; at D345N hDAT [13] (set paired with W84L (n=6)), 0.51 ± 0.12 (6) pmol/mg; on D345N hDAT [13] (set paired with WT (n=4)), 0.62 ± 0.10 (4) pmol/mg; at WT hDAT [15], 0.55 ± 0.03 (6) pmol/mg. Also, the Kd stood at 48.2 ± 10.3 nM in test [3]; 25.9 ± 4 nM in test [7]; 6.75 ± 3.22 nM in test [8]; 103 ± 5 nM in [10]; 6.42 ± 1.1 nM in test [11]; 5.33 ± 0.95 nM in test [12]. In addition, the values for the Kd in test [14] and in test [16] were 4.4 ± 0.77 nM and 2.01 ± 0.67 nM, respectively.
